In patent US20150224164A1, “TREATMENT OF AUTISM SPECTRUM DISORDERS USING GLYCYL-L-2-METHYLPROLYL-L-GLUMATIC ACID” (Neuren Pharmaceuticals Limited, priority 2013, published 2015):
Where a SMILES comes first, the peptide text is derived from it.

Columns and labels:
[1] = tested on: ChAT-positive neurons in the striatum; assay: ChAT immunohistochemistry in striatum of aging rats; assay type: in vivo, rat; details: single s.c. dose 0.012-12 mg/kg; 18-month old rats; 3 days after treatment
Procedure: Eighteen-month old male rats received one of five treatments. A control group was treated with vehicle (saline alone (n=4) and four groups were treated with a single dose of G-2-MePE. […] Rats were sacrificed with an overdose of pentobarbital 3 days after drug treatment. Brains were perfused with normal saline and 4% paraformaldehyde and fixed in perfusion fixative overnight. Brains were stored in 25% sucrose in 0.1M PBS (pH7.4) until the tissue sank. Frozen coronal sections of striatum were cut with a microtome and stored in 0.1% sodium azide in 0.1M PBS at 4° C. Immunoreactivity for choline acetyltransferase (ChAT) was established by staining using a free floating section method. Briefly, antibodies were diluted in 1% goat serum. The sections were incubated in 0.2% triton in 0.1M PBS/Triton™ at 4° C. overnight before Immunohistochemical staining. The sections were pre-treated with 1% H2O2 in 50% methanol for 20 min. The sections were then incubated with rabbit (Rb) anti-ChAT (1:5000) antibodies (the primary antibodies) in 4D on a shaker for two days. The sections were washed using PBS/Triton™ (15 minutes×3d) and then incubated with goat anti-rabbit biotinylated secondary antibodies (1:1000) at room temperature overnight. […] The size of the striatal region used for the count was measured using an image analyser. […] Data were analysed using a paired t-test and presented as mean+/−SEM.

[2] = tested on: layer 5 pyramidal neurons of motor cortex, MeCP2 knockout; assay: Golgi staining, cortical spine density (Example 10); assay type: in vivo, mouse; details: P28 mice; knockout with treatment
Procedure: Samples (<1 cm) from P28 mice are fixed in 10% formalin and 3% potassium bichromate for 24 hours. Tissue is then transferred into 2% silver nitrate for 2 days in the dark at room temperature. Sections from these samples are then cut at 50 μm thickness into distilled water. Sections corresponding to motor cortex are mounted onto slides, air dried for 10 minutes, and then dehydrated through sequential rinses of 95% alcohol, 100% alcohol, and xylene, and then sealed with a coverslip. Images re acquired at 10× (whole cell) and 100× (spine imaging) using a Zeiss Pascal 5 Exciter confocal microscope. We use Golgi staining to label neurons sparsely and distinctly, and applied high-resolution confocal imaging to measure dendritic spine density and morphology in the labelled cells, restricting analysis to layer 5 pyramidal neurons in sections of motor cortex from critical period mice (P28). While low-magnification imaging clearly delineates the extent of the dendrites of the pyramidal cells we use higher magnifications to count synaptic contacts and determine the morphological class of each spine. We classify spines as either large and bulbous (“mushroom”, M), short and stubby (“stubby”, S), short and thin (“thin”, T) or filopodia (F).

C[C@@]1(C(=O)N[C@@H](CCC(=O)O)C(=O)O)CCCN1C(=O)CN [Example G-2-MePE, Glycyl-L-2-methylprolyl-L-glutamic acid] (HELM PEPTIDE1{G.[C[C@@]1(C(=O)[*:2])CCCN1[*:1]].E}$$$$V2.0)
number of ChAT-immunopositive neurons [1]: increased | density of spines per unit branch [2]: largely ameliorated
